Data as given in patent US20100261768A1, “Bioavailable Compositions of Amorphous Alpha-(N-Sulfonamido)Acetamide Compound” (Bristol-Myers Squibb Company, priority 2009, published 2010).

Columns and labels:
aqueous solubility = type: physicochemical; settings: aqueous medium; at about room temperature
Method: (§1) Unfortunately, (2R)-2-[[(4-chlorophenyl)sulfonyl][[2-fluoro-4-(1,2,4-oxadiazol-3-yl)phenyl]methyl]amino]-5,5,5-trifluoropentanamide has poor aqueous solubility that is often characterized as <1 ug/mL at about room temperature. […] Thus, it now appears that in order to provide optimal exposure of the API, an amorphous (non-crystalline) form of the active compound should be provided.

[1] = solubility of the compound in PVP-VA; type: physicochemical; settings: at a temperature of about 100° C.
Method: In order to prepare the compositions hereinabove described, various preparation means available to the skilled artisan may be utilized. It is preferred that the compositions containing the active compound and PVP-VA be prepared by the methods of hot-melt extrusion or spray-drying, with hot-melt extrusion being more preferred. A processing temperature of about 150-160° C. is preferred for hot-melt extrusion processing of the active compound using apparatus available in the art.

[2] = bioavailability after particle size reduction; type: in vivo
Method: as §1

With `NC(=O)[C@@H](CCC(F)(F)F)N(Cc1ccc(-c2ncon2)cc1F)S(=O)(=O)c1ccc(Cl)cc1` [(2R)-2-[[(4-chlorophenyl)sulfonyl][[2-fluoro-4-(1,2,4-oxadiazol-3-yl)phenyl]methyl]amino]-5,5,5-trifluoropentanamide] the solubility (aqueous solubility) was < 1 µg/mL, the “soluble in PVP-VA” value [1] was “less than 5%” and the “improvement in bioavailability by particle size reduction” value [2] was “no appreciable improvement”.
